According to patent US6358885B1, “Substituted phenylheterocyclic herbicides” (Mississippi State University, priority 1992, dated 2002):

What was measured:
lambsquarters = assay: Test B preemergence/postemergence greenhouse plant response rating 0 to 10; assay type: in vivo, Chenopodium album; details: 0 to 10 scale
Outline: (§1)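 Planted seeds are treated preemergence with compound dissolved in a non-phytotoxic solvent, while postemergence applications go onto plants of two to eighteen cm. Plants stay in the greenhouse twelve to sixteen days and are then rated visually relative to controls.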

sorghum [1] = assay: Test C preemergence/postemergence greenhouse plant response rating 0 to 100; assay type: in vivo, Sorghum bicolor; details: POSTEMERGENCE
Outline: (§2)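 Compounds in non-phytotoxic solvent went onto sandy loam before emergence (seeded one day earlier) or onto plants at the one-to-four leaf stage. Duck salad was treated via flood water (~2.5 cm, maintained) over silt loam.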

barnyardgrass = assay: Test C flood test plant response rating 0 to 100; assay type: in vivo, Echinochloa crus-galli
Outline: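 Compounds in non-phytotoxic solvent applied preemergence to sandy loam one day after planting, postemergence at the 1–4 leaf stage, or to ~2.5 cm floodwater over silt loam.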

cotton = assay: Test B preemergence/postemergence greenhouse plant response rating 0 to 10; assay type: in vivo, Gossypium hirsutum; details: 0 to 10 scale
Outline: as §1

sorghum [2] = assay: as above; assay type: in vivo, Sorghum bicolor; details: 0 to 10 scale
Outline: as §1

bedstraw = assay: as above; assay type: in vivo, Galium aparine; details: POSTEMERGENCE, 0 to 10 scale
Outline: as §1

wild oat [3] = assay: as above; assay type: in vivo, Avena fatua; details: 0 to 10 scale
Outline: as §1

ryegrass = assay: Test C preemergence/postemergence greenhouse plant response rating 0 to 100; assay type: in vivo, Lolium multiflorum; details: POSTEMERGENCE
Outline: as §2

sugar beet = assay: Test B preemergence/postemergence greenhouse plant response rating 0 to 10; assay type: in vivo, Beta vulgaris; details: 0 to 10 scale
Outline: as §1

barley = assay: as above; assay type: in vivo, Hordeum vulgare; details: 0 to 10 scale
Outline: as §1

wheat [4] = assay: Test C preemergence/postemergence greenhouse plant response rating 0 to 100; assay type: in vivo, Triticum aestivum; details: POSTEMERGENCE
Outline: as §2

blackgrass = assay: Test B preemergence/postemergence greenhouse plant response rating 0 to 10; assay type: in vivo, Alopecurus myosuroides; details: 0 to 10 scale
Outline: as §1

downy brome = assay: Test C preemergence/postemergence greenhouse plant response rating 0 to 100; assay type: in vivo, Bromus tectorum; details: POSTEMERGENCE
Outline: as §2

wild oat [5] = assay: as above; assay type: in vivo, Avena fatua; details: POSTEMERGENCE
Outline: as §2

wild buckwheat = assay: as above; assay type: in vivo, Polygonum convolvulus; details: POSTEMERGENCE
Outline: as §2

wheat [6] = assay: Test B preemergence/postemergence greenhouse plant response rating 0 to 10; assay type: in vivo, Triticum aestivum; details: 0 to 10 scale
Outline: as §1

rape = assay: Test C preemergence/postemergence greenhouse plant response rating 0 to 100; assay type: in vivo, Brassica napus; details: POSTEMERGENCE
Outline: as §2

crabgrass = assay: as above; assay type: in vivo, Digitaria sanguinalis; details: POSTEMERGENCE
Outline: as §2

`C#CCN1C(=O)COc2cc(F)c(-c3nn4c(c3Cl)CCCC4)cc21` [Compound 34] was tested, and the “Plant response rating, Lambsquarter” value (lambsquarters; POSTEMERGENCE, Rate 10 g/ha) was 9, the “Plant response rating, Lambsquarter” value (lambsquarters; POSTEMERGENCE, Rate 50 g/ha) was 10 and the “Plant response rating, Lambsquarter” value (lambsquarters; PREEMERGENCE, Rate 50 g/ha) was 10. For the same molecule, the “Plant response rating, Sorghum” value (sorghum [1]; 62 g/ha, 0 to 100 scale) was 70, the “Plant response rating (0 to 100), Sorghum” value (sorghum [1]; Rate 1 g/ha) was 30 and the “Plant response rating (0 to 100), Sorghum” value (sorghum [1]; Rate 4 g/ha) was 40. For the same molecule, the “Plant response rating (0 to 100), Sorghum” value (sorghum [1]; Rate 16 g/ha) was 50, the “Plant response rating (0 to 100), Barnyardgrass” value (barnyardgrass; POSTEMERGENCE section, flood test, Rate 1 g/ha) was 60 and the “Plant response rating (0 to 100), Barnyardgrass” value (barnyardgrass; Rate 4 g/ha, under POSTEMERGENCE head (flood test species)) was 75. The “Plant response rating (0 to 100), Barnyardgrass” value (barnyardgrass; Rate 16 g/ha, under POSTEMERGENCE head (flood test species)) was 95, the “Plant response rating, Barnyardgrass” value (barnyardgrass; flood test species listed under POSTEMERGENCE, 62 g/ha, 0 to 100 scale) was 100 and the “Plant response rating, Cotton” value (cotton; POSTEMERGENCE, Rate 10 g/ha) was 10. For the same molecule, the “Plant response rating, Cotton” value (cotton; POSTEMERGENCE, Rate 50 g/ha) was 10, the “Plant response rating, Cotton” value (cotton; PREEMERGENCE, Rate 10 g/ha) was 0 and the “Plant response rating, Cotton” value (cotton; PREEMERGENCE, Rate 50 g/ha) was 0. For the same molecule, the “Plant response rating, Sorghum” value (sorghum [2]; POSTEMERGENCE, Rate 10 g/ha) was 4, the “Plant response rating, Sorghum” value (sorghum [2]; POSTEMERGENCE, Rate 50 g/ha) was 6 and the “Plant response rating, Sorghum” value (sorghum [2]; PREEMERGENCE, Rate 50 g/ha) was 2. The “Plant response rating, Bedstraw” value (bedstraw; Rate 10 g/ha) was 10, the “Plant response rating, Bedstraw” value (bedstraw; Rate 50 g/ha) was 10 and the “Plant response rating, Wild oat” value (wild oat [3]; POSTEMERGENCE, Rate 10 g/ha) was 5. The “Plant response rating, Wild oat” value (wild oat [3]; POSTEMERGENCE, Rate 50 g/ha) was 5, the “Plant response rating, Wild oat” value (wild oat [3]; PREEMERGENCE, Rate 50 g/ha) was 7 and the “Plant response rating Ryegrass” value (ryegrass; 62 g/ha, 0 to 100 scale) was 30. For the same molecule, the “Plant response rating (0 to 100), Ryegrass” value (ryegrass; Rate 1 g/ha) was 10, the “Plant response rating (0 to 100), Ryegrass” value (ryegrass; Rate 4 g/ha) was 20 and the “Plant response rating (0 to 100), Ryegrass” value (ryegrass; Rate 16 g/ha) was 30. For the same molecule, the “Plant response rating, Sugar beet” value (sugar beet; POSTEMERGENCE, Rate 10 g/ha) was 10, the “Plant response rating, Sugar beet” value (sugar beet; POSTEMERGENCE, Rate 50 g/ha) was 10 and the “Plant response rating, Sugar beet” value (sugar beet; PREEMERGENCE, Rate 50 g/ha) was 9. For the same molecule, the “Plant response rating, Barley” value (barley; POSTEMERGENCE, Rate 10 g/ha) was 4, the “Plant response rating, Barley” value (barley; POSTEMERGENCE, Rate 50 g/ha) was 4 and the “Plant response rating, Barley” value (barley; PREEMERGENCE, Rate 10 g/ha) was 0. For the same molecule, the “Plant response rating, Barley” value (barley; PREEMERGENCE, Rate 50 g/ha) was 2, the “Plant response rating, Wheat” value (wheat [4]; 62 g/ha, 0 to 100 scale) was 50 and the “Plant response rating (0 to 100), Wheat” value (wheat [4]; Rate 1 g/ha) was 20. For the same molecule, the “Plant response rating (0 to 100), Wheat” value (wheat [4]; Rate 4 g/ha) was 30, the “Plant response rating (0 to 100), Wheat” value (wheat [4]; Rate 16 g/ha) was 40 and the “Plant response rating, Blackgrass” value (blackgrass; POSTEMERGENCE, Rate 10 g/ha) was 4. The “Plant response rating, Blackgrass” value (blackgrass; POSTEMERGENCE, Rate 50 g/ha) was 6, the “Plant response rating, Blackgrass” value (blackgrass; PREEMERGENCE, Rate 10 g/ha) was 4 and the “Plant response rating, Blackgrass” value (blackgrass; PREEMERGENCE, Rate 50 g/ha) was 6. The “Plant response rating Downy Brome” value (downy brome; 62 g/ha, 0 to 100 scale) was 50, the “Plant response rating (0 to 100), Downy Brome” value (downy brome; Rate 1 g/ha) was 20 and the “Plant response rating (0 to 100), Downy Brome” value (downy brome; Rate 4 g/ha) was 30. For the same molecule, the “Plant response rating (0 to 100), Downy Brome” value (downy brome; Rate 16 g/ha) was 40, the “Plant response rating, Wild oat” value (wild oat [5]; 62 g/ha, 0 to 100 scale) was 30 and the “Plant response rating (0 to 100), Wild oat” value (wild oat [5]; Rate 1 g/ha) was 10. The “Plant response rating (0 to 100), Wild oat” value (wild oat [5]; Rate 4 g/ha) was 20, the “Plant response rating (0 to 100), Wild oat” value (wild oat [5]; Rate 16 g/ha) was 20 and the “Plant response rating, Wild buckwheat” value (wild buckwheat; 62 g/ha, 0 to 100 scale) was 100. The “Plant response rating (0 to 100), Wild buckwheat” value (wild buckwheat; Rate 4 g/ha) was 50, the “Plant response rating (0 to 100), Wild buckwheat” value (wild buckwheat; Rate 16 g/ha) was 100 and the “Plant response rating, Wheat” value (wheat [6]; POSTEMERGENCE, Rate 10 g/ha) was 5. For the same molecule, the “Plant response rating, Wheat” value (wheat [6]; POSTEMERGENCE, Rate 50 g/ha) was 5, the “Plant response rating, Wheat” value (wheat [6]; PREEMERGENCE, Rate 50 g/ha) was 3 and the “Plant response rating, Rape” value (rape; 62 g/ha, 0 to 100 scale) was 100. For the same molecule, the “Plant response rating (0 to 100), Rape” value (rape; Rate 1 g/ha) was 85, the “Plant response rating (0 to 100), Rape” value (rape; Rate 4 g/ha) was 100 and the “Plant response rating (0 to 100), Rape” value (rape; Rate 16 g/ha) was 100. For the same molecule, the “Plant response rating, Crabgrass” value (crabgrass; 62 g/ha, 0 to 100 scale) was 60, the “Plant response rating (0 to 100), Crabgrass” value (crabgrass; Rate 1 g/ha) was 10 and the “Plant response rating (0 to 100), Crabgrass” value (crabgrass; Rate 4 g/ha) was 20. The “Plant response rating (0 to 100), Crabgrass” value (crabgrass; Rate 16 g/ha) was 30.
